Drawing on patent US20250115558A1, “PYRIDAZINE DERIVATIVES AND RELATED USES” (NodThera Limited, priority 2023, published 2025), this text covers IC50 for 17 compounds.

By IC50 is commonly meant the concentration at which inhibition is half-maximal. The low end stands for greater potency, the high end for weaker potency.

The test system of assay [1] is IL-1β release upon NLRP3 activation in peripheral blood mononuclear cells (PBMC). Nature of the assay: PBMC IC50 Determination Assay. The conditions noted are these: Homo sapiens; inhibition of IL-1β release; LPS-primed PBMC stimulated with ATP or nigericin. Type of assay: cell-based. A digest of the protocol:
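Human PBMC from buffy coats primed 3 h with LPS (1 μg/mL in protocol B), then compound for 30 min, then ATP (5 mM) or nigericin (10 μM; protocol A only) for 1 h. IL-1β released into medium measured by ELISA at 450 nm (protocol A) or HTRF at […] (protocol B).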

The next assay relates to THP-1. Nature of the assay: THP-1 IC50 assay. It is filed as cell-based. Particulars: Homo sapiens; THP-1 cells.

Structures can show the parent of a compound that is named as a salt. Where only a bound is given, the exact number is not on record here.

Consider `CO[C@@H]1CCN(Cc2ccc(-c3c(C)cc(Cl)cc3O)nn2)C1` [Compound 60, (R)-5-Chloro-2-(6-((3-methoxypyrrolidin-1-yl)methyl)pyridazin-3-yl)-3-methylphenol], for which the IC50 (in assay [1]; with THP-1) was 1000 to 3000 nM throughout.

With `Cc1cc(Cl)cc(O)c1-c1ccc(CN(C)[C@H]2CC(=O)N(C)C2)nn1` [Compound 91, (4S)-4-({[6-(4-Chloro-2-hydroxy-6-methylphenyl)pyridazin-3-yl]methyl}(methyl)amino)-1-methylpyrrolidin-2-one], the IC50 (in assay [1]; in the assay with THP-1) was 1000 to 3000 nM each time.

For the compound `Cc1cc(C(F)(F)F)cc(O)c1-c1ccc(CN2CCCCC2=O)nn1` [Compound 151], the IC50 (in assay [1]; in the assay with THP-1) was under 500 nM throughout.

`Cc1cc(C(F)(F)F)cc(O)c1-c1ccc(CNC(C)C)nn1` [Compound 99]: the IC50 in assay [1] was under 500 nM; with THP-1, 500 to 1000 nM.

For `Cc1cc(Cl)cc(O)c1-c1ccc(CN2CCCC2=S)nn1` [Compound 89, 1-{[6-(4-Chloro-2-hydroxy-6-methylphenyl)pyridazin-3-yl]methyl}pyrrolidine-2-thione], the IC50 (in assay [1]; in the assay on THP-1) was under 500 nM each time.

On to `Cc1cc(Br)cc(O)c1-c1ccc(CNC2CCOCC2)nn1` [Compound 29, 5-Bromo-3-methyl-2-(6-(((tetrahydro-2H-pyran-4-yl)amino)methyl)pyridazin-3-yl)phenol], for which the IC50 (in assay [1]; with THP-1) was under 500 nM throughout.

As to `Cc1cc(C(F)(F)F)cc(O)c1-c1ccc(COC2CCCN(C)C2)nn1` (stereo not shown) [Compound 41, 3-Methyl-2-(6-(((1-methylpiperidin-3-yl)oxy)methyl)pyridazin-3-yl)-5-(trifluoromethyl)phenol hydrochloride], the IC50 in assay [1] was in the range of 500 to 1000 nM; in the assay on THP-1, 1000 to 3000 nM.

Turning to `Cc1cc(C(F)(F)F)cc(O)c1-c1ccc(Cn2ccccc2=N)nn1` [Compound 119], the IC50 (in assay [1]; in the assay with THP-1) was 500 to 1000 nM in each case.

Regarding `Cc1cc(C(F)(F)F)cc(O)c1-c1ccc(CN2CC[C@H](F)C2)nn1` [Compound 35, (S)-2-(6-((3-Fluoropyrrolidin-1-yl)methyl)pyridazin-3-yl)-3-methyl-5-(trifluoromethyl)phenol], the IC50 (in assay [1]; with THP-1) was 500 to 1000 nM throughout.

For `Cc1cc(C(F)(F)F)cc(O)c1-c1ccc(CNC2CCS(=O)(=O)CC2)nn1` [Compound 137], the IC50 (in assay [1]; in the assay on THP-1) was 1000 to 3000 nM throughout.

Turning to `Cc1cc(C(F)(F)F)cc(O)c1-c1ccc(CNC2CCN(C)C(=O)C2)nn1` (stereo not shown) [Compound 112], the IC50 in assay [1] was 500 to 1000 nM; in the assay with THP-1, 1000 to 3000 nM.

For the compound `Cc1cc(F)cc(O)c1-c1ccc(CNC2CCOCC2)nn1` [Compound 52, 5-Fluoro-3-methyl-2-(6-(((tetrahydro-2H-pyran-4-yl)amino)methyl)pyridazin-3-yl)phenol], the IC50 (in assay [1]; in the assay on THP-1) was 3000 to 10000 nM each time.

Regarding `Cc1cc(NCc2ccc(-c3c(C)cc(C(F)(F)F)cc3O)nn2)on1` [Compound 149], the IC50 (in assay [1]; in the assay with THP-1) was 1000 to 3000 nM in each case.

For `Cc1cc(Cl)cc(O)c1-c1ccc(CN(C)[C@H]2CCOC2)nn1` [Compound 59, (S)-5-Chloro-3-methyl-2-(6-((methyl(tetrahydrofuran-3-yl)amino)methyl)pyridazin-3-yl)phenol], the IC50 in assay [1] is 1000 to 3000 nM; with THP-1 it was 500 to 1000 nM.

As for `Cc1cc(C(F)(F)F)cc(O)c1-c1ccc(CNc2ccncn2)nn1` [Compound 75, 3-Methyl-2-(6-((pyrimidin-4-ylamino)methyl)pyridazin-3-yl)-5-(trifluoromethyl)phenol hydrochloride], the IC50 is 500 to 1000 nM in assay [1] and under 500 nM with THP-1.

`Cc1cc(C(F)(F)F)cc(O)c1-c1ccc(CNc2cnsc2)nn1` [Compound 150]: the IC50 (in assay [1]; with THP-1) was under 500 nM in each case.

Regarding `CNCc1ccc(-c2c(C)cc(C(F)(F)F)cc2O)nn1` [Compound 93], the IC50 (in assay [1]; in the assay with THP-1) was 1000 to 3000 nM each time.
